The target of the assay is T1, Nitric oxide synthase, inducible (Mus musculus) (UniProt P29477).
T1 sequence (whole entry): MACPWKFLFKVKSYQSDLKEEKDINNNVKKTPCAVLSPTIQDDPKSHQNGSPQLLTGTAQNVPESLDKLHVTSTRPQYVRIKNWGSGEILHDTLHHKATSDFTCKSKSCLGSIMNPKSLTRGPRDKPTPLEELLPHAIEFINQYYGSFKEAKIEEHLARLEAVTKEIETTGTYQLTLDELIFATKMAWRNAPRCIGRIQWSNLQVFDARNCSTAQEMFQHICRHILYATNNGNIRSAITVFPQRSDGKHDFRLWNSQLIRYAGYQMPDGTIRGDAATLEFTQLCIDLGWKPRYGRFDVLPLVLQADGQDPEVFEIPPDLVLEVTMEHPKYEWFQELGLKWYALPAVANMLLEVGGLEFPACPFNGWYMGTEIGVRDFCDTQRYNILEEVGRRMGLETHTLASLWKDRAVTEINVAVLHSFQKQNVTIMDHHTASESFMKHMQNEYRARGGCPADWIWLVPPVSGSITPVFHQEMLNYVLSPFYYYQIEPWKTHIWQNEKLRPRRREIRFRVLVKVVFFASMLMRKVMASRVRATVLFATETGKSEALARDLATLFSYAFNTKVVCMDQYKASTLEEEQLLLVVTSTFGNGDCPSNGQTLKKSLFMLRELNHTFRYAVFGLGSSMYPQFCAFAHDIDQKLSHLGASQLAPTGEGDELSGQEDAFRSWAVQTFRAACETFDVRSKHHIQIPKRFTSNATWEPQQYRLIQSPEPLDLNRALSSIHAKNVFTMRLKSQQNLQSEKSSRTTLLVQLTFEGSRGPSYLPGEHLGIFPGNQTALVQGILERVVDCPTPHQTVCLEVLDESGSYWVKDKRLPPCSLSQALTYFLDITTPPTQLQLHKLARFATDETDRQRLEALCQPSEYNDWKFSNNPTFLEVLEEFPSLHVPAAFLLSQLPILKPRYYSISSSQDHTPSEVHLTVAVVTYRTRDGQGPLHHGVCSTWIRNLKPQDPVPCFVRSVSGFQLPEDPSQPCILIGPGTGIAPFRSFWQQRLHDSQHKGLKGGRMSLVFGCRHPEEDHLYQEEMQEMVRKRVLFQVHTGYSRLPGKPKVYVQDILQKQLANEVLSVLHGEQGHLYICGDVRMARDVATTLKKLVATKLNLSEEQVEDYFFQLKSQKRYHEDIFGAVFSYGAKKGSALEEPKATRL
Nature of the assay: Inhibitory against murine macrophage nitric oxide synthase (mNOS) at 10 uM.

As a reminder, the kinact is the maximal first-order rate at which the target is inactivated.

`CNC(=N)NCCC[C@H](N)C(=O)O`: the inactivation rate constant (kinact) worked out at 0.08 min⁻¹.
In the case of `CN(O)C(=N)NCCCC(N)C(=O)O` (configuration not stated), the kinact amounted to 0.1 min⁻¹.

The record behind these values is ChEMBL document CHEMBL1126597, “Irreversible inactivation of macrophage and brain nitric oxide synthase by L-NG-methylarginine requires NADPH-dependent hydroxylation” (J Med Chem, 1993).
